The text below walks through data of US10081609B2, “Compounds for inducing proliferation and differentiation of cells, and methods of use thereof” (The Broad Institute, Inc., priority 2013, dated 2018).

Converted amounts (≈) assume the structure as drawn. Where two headings read alike, the source gives them in different places. A value given as a limit tells only on which side of the number the result lay.

The nature of series [1]: Microsomal stability - Human. The class given is in vitro ADME. Particulars: for Microsomal stability No NADPH: non-enzymatic microsomal mechanisms only; for Microsomal stability Average: enzymatic and non-enzymatic microsomal mechanisms. The protocol:
(§1) Selected compounds of the invention were evaluated for physico-chemical properties, including solubility, microsomal stability, protein binding and plasma stability (Table 2).
(§2) Selected compounds of the invention were evaluated for physico-chemical properties, including solubility, microsomal stability, protein binding and plasma stability (Table 3).

Series [2] has as its system human iPS-derived hepatocyte-like cells (iHeps). In words: In vitro maturation of iHeps: ELISA of albumin and AFP. The class given is cell-based. Particulars: iHeps treated for 9 days. The procedure: The in vitro maturation effects of selected compounds of the invention on human iPS-derived hepatocyte-like cells (iHeps) were evaluated. Human iPS cells were differentiated into iHeps and treated with selected compounds of the invention for 9 days. Maturity of treated iHeps was evaluated through ELISA quantification of mature (albumin) and immature (AFP) markers. Results are illustrated in FIG. 19.
(In general: ELISA stands for enzyme-linked immunosorbent assay.)

Series [3] has as its system human primary hepatocytes. The series is described as follows: Expansion of compound-treated human primary hepatocytes (cell counts, Ki67 staining). The class given is cell-based. Particulars: for proliferation of hepatocytes: FIG. 11A. The procedure: The metabolic phenotype of the treated hepatocytes was assessed for canalicular transport. […] Gene expression profiling confirmed that there was no significant differences between FPH-treated and untreated hepatocytes (FIG. 11D).
The ability of compounds 201-212, 215, 217 and 244-258 to expand human primary hepatocytes in vitro was also tested.

A short description of series [4]: Solubility in PBS with 1% DMSO. The class given is physicochemical. To be noted: aqueous buffer, kinetic from dmso stock. The procedure: as §1, §2
The subject of series [5] is iHeps. The series is described as follows: Cytochrome P450 activity in treated iHeps. The class given is cell-based. Particulars: iHeps treated for 9 days. The text has this:
iPS Cells were differentiated into iHeps, treated with selected compounds of the invention for 9 days, then assayed for CYP functions. The general CYP activity of the iHeps treated with compounds of the invention were elevated (FIG. 20A).

A short description of the next series: Plasma stability - Human. The class given is in vitro ADME. The procedure:
as §1, §2

The next series in a line: Protein binding - Human. The class given is in vitro ADME. The protocol: as §1, §2
For the next series, the system named is human hepatocytes. In words: CYP450 induction control in human hepatocytes. The class given is cell-based. To be noted: 250 μM. The procedure:
To confirm the staining results, secreted levels of albumin and AFP via ELISA, and CYP450 activities through isoenzyme-specific probes that are either fluorescent or luminescent were measured. ELISA results verified both an increase in albumin secretion and a decrease in AFP secretion by treated iHeps (FIG. 4D bottom). CYP3A4 activity increased by 16 and 45 times upon treatment with FH1 and FPH2, respectively. […] Induction was considered as a possible explanation for these elevations in CYP450 activity. However, this was unlikely based on the following experiments. […] Since a period of at least 48 hrs separated compound treatment and the measurement of CYP450 activity, the iHeps were expected to have recovered from any general elevations in CYP450 activity.

Series [6] deals with iHeps. The series is described as follows: Differentiation and maturation of iHeps (albumin/AFP ELISA, staining, CYP3A4 activity). The class given is cell-based, human. The protocol:
Undifferentiated iPS cells were cultured on Matrigel, supported by primary mouse embryonic fibroblasts. Once confluent, iPS cells were transitioned to differentiation media, with sequential addition of growth factors (Activin A, BMP-4, bFGF, HGF, and OSM) to guide differentiation, first into endoderm, then into hepatic progenitor cells and finally into iHeps. Compound treatment started on day 21 post initiation of differentiation and acted over a period of 9 days.
Consistent with the literature, untreated cultures had islands that double stain for albumin and the fetal marker AFP, with very little presence of the mature marker […].
The ability of compounds 201-212, 217 and 244-258 to affect the differentiation of iHeps was also tested.

Usually solubility stands for how much of the substance goes into solution per volume. On to `C[C@H](CO)N1C[C@H](C)[C@H](CN(C)C(=O)Nc2ccc(F)cc2)Oc2ncc(C#Cc3ccc(F)cc3)cc2C1=O` [Compound 107, 3-(4-fluorophenyl)-1-(((2R,3S)-8-((4-fluorophenyl)ethynyl)-5-((R)-1-hydroxypropan-2-yl)-3-methyl-6-oxo-3,4,5,6-tetrahydro-2H-pyrido[2,3-b][1,5]oxazocin-2-yl)methyl)-1-methylurea], for which, in [1], the “Microsomal stability Rep1” value turned out to be 52.4 % remaining, the “Microsomal stability Rep2” value is given as 59.3 % remaining, the “Microsomal stability No NADPH” value amounted to 94.4 % remaining and the “Microsomal stability Average” value turned out to be 55.8 % remaining. Also, the “experimental range of effective concentrations, albumin (mature marker)” value in series [2] lay within 5 to 20 µM. Moreover, in [3], the “Ki67 staining co-localized with Hoechst and human albumin stains” value is listed as “increased”; the proliferation of hepatocytes entry is reported as “induced proliferation”. Moreover, the solubility in series [4] (read-out: Solubility Average) was 41 µM (≈ 22.5 µg/mL). In addition, the solubility in [4] (read-out: Solubility Rep1) turned out to be 33 µM (≈ 18.1 µg/mL). In series [4] (read-out: Solubility Rep2), the solubility was found to be 47 µM (≈ 25.8 µg/mL). Further, in [4] (read-out: Solubility Rep3), the solubility came to 41 µM (≈ 22.5 µg/mL). Moreover, in the series with iHeps [5], the “experimental range of effective concentrations, CYP2A6” value fell in the range of 10 to 26.7 µM; the “experimental range of effective concentrations, CYP3A4” value lay within 6.7 to 20 µM; the “experimental range of effective concentrations, CYP3A7” value was 10 to 13.3 µM; the “experimental range of effective concentrations, general CYP activity (general BFC)” value was 13.3 µM. In addition, in the series “Plasma stability - Human”, the “Plasma stability Average” value is 87.1 % remaining. Moreover, in “Protein binding - Human”, the “Protein binding Average” value was 99.5 % bound, the “Protein binding Rep1” value was 99.4 % bound and the “Protein binding Rep2” value was 99.5 % bound.

Consider `O=c1cc(-c2ccccc2)oc2ccc3ccccc3c12` [BNF, β-naphthoflavone], for which, in the series on human hepatocytes, the CYP450 activity result is recorded as “elevated”.

In the case of `C[C@H]1CN([C@@H](C)CO)C(=O)CCCn2cc(nn2)CO[C@H]1CN(C)C(=O)C1CC1` [Compound 108, N-(((4R,5S,Z)-7-((S)-1-hydroxypropan-2-yl)-5-methyl-8-oxo-11H-3-oxa-7-aza-1(4,1)-triazolacycloundecaphane-4-yl)methyl)-N-methylcyclopropanecarboxamide], the “hepatocyte phenotype of treated iHeps” value in the series with iHeps [6] was “more mature hepatocyte phenotypes”. Further, in the series with iHeps [6] (treatment from day 21, 9 days), the “AFP secretion (ELISA)” value is given as “decreased” and the “albumin secretion (ELISA)” value is on record as “increased”. Besides, in [1], the “Microsomal stability Rep1” value is 99.4 % remaining, the “Microsomal stability Rep2” value came out at 95.3 % remaining, the “Microsomal stability No NADPH” value was determined as 102.3 % remaining and the “Microsomal stability Average” value came out at 97.4 % remaining. The “experimental range of effective concentrations, albumin (mature marker)” value in series [2] is 5 to 13.3 µM. For the same compound, the proliferation of hepatocytes entry in series [3] was “induced proliferation”. Moreover, in series [4] (read-out: Solubility Average), the solubility is > 100 µM. Moreover, the solubility in [4] (read-out: Solubility Rep1) was > 100 µM. In addition, the solubility in [4] (read-out: Solubility Rep2) was > 100 µM. In [4] (read-out: Solubility Rep3), the solubility was > 100 µM. Moreover, in the series with iHeps [5], the “experimental range of effective concentrations, CYP2A6” value lay within 10 to 20 µM; the “experimental range of effective concentrations, CYP3A4” value is 6.7 to 13.3 µM; the “experimental range of effective concentrations, CYP3A7” value is 6.7 to 10 µM; the “experimental range of effective concentrations, general CYP activity (general BFC)” value fell in the range of 6.7 to 13.3 µM. Besides, the “Plasma stability Average” value in the series “Plasma stability - Human” was found to be 104.2 % remaining. In addition, in “Protein binding - Human”, the “Protein binding Average” value worked out at 12.0 % bound, the “Protein binding Rep1” value is 11.8 % bound and the “Protein binding Rep2” value amounted to 12.1 % bound.
